ChEMBL document CHEMBL1146801, “Oxyguanidines. Part 2: Discovery of a novel orally active thrombin inhibitor through structure-based drug design and parallel synthesis” (Bioorg Med Chem Lett, 2004)

Key:
Prothrombin = Prothrombin (Homo sapiens, UniProt P00734); assay: Inhibitory activity against thrombin
[1] = Cmax on p.o. administration of 10 mg/kg was measured in dog; type: ADME, organism-based, Canis lupus familiaris; design: dose 10 mg/kg, route oral; conditions: in vivo, po
[2] = Half life on i.v. administration of 2 mg/kg was measured in dog; type: ADME, organism-based, Canis lupus familiaris; design: dose 2 mg/kg, route intravenous; conditions: in vivo, iv
[3] = Vss on i.v. administration of 2 mg/kg was measured in dog; type: ADME, organism-based, Canis lupus familiaris; design: dose 2 mg/kg, route intravenous; conditions: in vivo, iv, read-out: Vss
[4] = Clearance on i.v. administration of 2 mg/kg was measured in dog; type: ADME, organism-based, Canis lupus familiaris; design: dose 2 mg/kg, route intravenous; conditions: in vivo, iv
[5] = Bioavailability in dog; type: ADME, organism-based, Canis lupus familiaris; conditions: in vivo
Caco-2 = assay: Apparent permeability coefficient (Papp) from the apical to basolateral side in the human Caco-2 monolayer was determined; type: functional
Homo sapiens = organism: Homo sapiens; assay: Concentration of compound required to double the human activated partial thromboplastin time; type: functional

| Compound | Ki (Prothrombin) | further results |
| --- | --- | --- |
| Cc1cc(OCCCONC(=N)N)cc(C(=O)N(Cc2ccncc2)CC2CC2)c1 | 24 nM | – |
| CCN(Cc1ccncc1)C(=O)c1cc(Cl)cc(OCCCONC(=N)N)c1 | 1600 nM | – |
| Cc1cc(OCC2(CONC(=N)N)CC2)cc(C(=O)N(Cc2ccoc2)CC2CC2)c1 | 4 nM | Cmax [1]: 4.1 µM; half-life [2]: 5.9 h; Vd [3]: 2.5 L/kg; clearance [4]: 5.7 mL/min/kg; bioavailability [5]: 77% |
| CCN(C(=O)c1cc(C)cc(OCCCONC(=N)N)c1)C1CCCCC1 | 6 nM | – |
| C=CCN(C(=O)c1cc(C)cc(OCCCON=C(N)N)c1)C1CCCC1 | – | Activity (Caco-2): 4.86e-06 cm/s; 2 x APTT (Homo sapiens): 11.3 µM |
| Cc1cc(OCCCON=C(N)N)cc(C(=O)N(Cc2ccoc2)CC2CC2)c1 | – | Activity (Caco-2): 3e-06 cm/s; 2 x APTT (Homo sapiens): 8.4 µM |
| CCCN(Cc1ccoc1)C(=O)c1cc(C)cc(OCCCON=C(N)N)c1 | – | Activity (Caco-2): 4.05e-06 cm/s; 2 x APTT (Homo sapiens): 11.5 µM |
| C=CCN(Cc1cccs1)C(=O)c1cc(Cl)cc(OCCCONC(=N)N)c1 | 147 nM | – |
| CCCN(CC1CC1)C(=O)c1cc(Cl)cc(OCCCONC(=N)N)c1 | 23 nM | – |
| CCCN(Cc1ccc(F)cc1)C(=O)c1cc(C)cc(OCCCON=C(N)N)c1 | 21 nM | – |
| CCCN(Cc1ccoc1)C(=O)c1cc(C)cc(OCC2(CON=C(N)N)CC2)c1 | – | Activity (Caco-2): 4.11e-06 cm/s; Cmax [1]: 5.8 µM; half-life [2]: 4.4 h; Vd [3]: 1.7 L/kg; clearance [4]: 4.2 mL/min/kg; bioavailability [5]: 73% |
| CCSCCN(Cc1ccoc1)C(=O)c1cc(C)cc(OCCCON=C(N)N)c1 | 6 nM | – |
| CCN(Cc1ccccc1)C(=O)c1cc(Cl)cc(OCCCONC(=N)N)c1 | 91 nM | – |
| Cc1cc(OCCCONC(=N)N)cc(C(=O)N(Cc2ccoc2)C2CCC2)c1 | 22 nM | – |
| CCCN(CC1CCC1)C(=O)c1cc(Cl)cc(OCCCON=C(N)N)c1 | 16 nM | – |
| C=CCN(C(=O)c1cc(C)cc(OCCCONC(=N)N)c1)C1CCCC1 | 10 nM | Cmax [1]: 3.7 µM; half-life [2]: 3.7 h; Vd [3]: 2.8 L/kg; clearance [4]: 11.2 mL/min/kg; bioavailability [5]: 89% |
| N=C(N)NOCCCOc1cc(Cl)cc(C(=O)N2CCN(c3ccccn3)CC2)c1 | 640 nM | – |
| Cc1cc(OCCCON=C(N)N)cc(C(=O)N(Cc2ccoc2)C(C)C)c1 | 68 nM | – |
| Cc1cc(OCCCONC(=N)N)cc(C(=O)N(Cc2ccoc2)CC2CC2)c1 | 11 nM | Cmax [1]: 5.1 µM; half-life [2]: 2.5 h; Vd [3]: 1.6 L/kg; clearance [4]: 7.8 mL/min/kg; bioavailability [5]: 68% |
| C=CCN(Cc1ccoc1)C(=O)c1cc(Cl)cc(OCCCONC(=N)N)c1 | 20 nM | – |
| Cc1cc(OCCCON=C(N)N)cc(C(=O)N(Cc2ccoc2)CC2CCCCC2)c1 | 21 nM | – |
| N=C(N)NOCCCOc1cc(Cl)cc(C(=O)N2CCC(Cc3ccccc3)CC2)c1 | 1500 nM | – |
| N=C(N)NOCCCOc1cc(Cl)cc(C(=O)N2CCc3ccccc3C2)c1 | 171 nM | – |
| Cc1cc(OCC2(CON=C(N)N)CC2)cc(C(=O)N(Cc2ccoc2)CC2CC2)c1 | – | Activity (Caco-2): 2.17e-06 cm/s; 2 x APTT (Homo sapiens): 8.7 µM |
| N=C(N)NOCCCOc1cc(Cl)cc(C(=O)N2CCN(c3ccccc3)CC2)c1 | 2900 nM | – |
| C[C@H](CS)C(=O)N1CCC[C@H]1C(=O)O [CAPTOPRIL] | 48 nM | – |

The next lines start with results.

| Ki (Prothrombin) | Compound | further results |
| --- | --- | --- |
| 470 nM | N=C(N)NOCCCOc1cc(Cl)cc(C(=O)N2CCCCCC2)c1 | – |
| 17 nM | N=C(N)NOCCCOc1cc(Cl)cc(C(=O)N(Cc2ccoc2)CC2CC2)c1 | – |
| 34 nM | Cc1cc(OCCCONC(=N)N)cc(C(=O)N(Cc2cccnc2)CC2CC2)c1 | – |
| 9 nM | C=CCN(C(=O)c1cc(C)cc(OCCCONC(=N)N)c1)C1CCCCC1 | – |
| 9 nM | CCCN(Cc1ccoc1)C(=O)c1cc(C)cc(OCCCONC(=N)N)c1 | Cmax [1]: 4.5 µM; half-life [2]: 3.8 h; Vd [3]: 2.4 L/kg; clearance [4]: 10.1 mL/min/kg; bioavailability [5]: 62% |
| 159 nM | N=C(N)NOCCCOc1cc(Cl)cc(C(=O)N(CCN2CCOCC2)CC2CC2)c1 | – |
| 213 nM | N=C(N)NOCCCOc1cc(Cl)cc(C(=O)N(CCC(=O)O)CC2CC2)c1 | – |
| 373 nM | CN(C(=O)c1cc(Cl)cc(OCCCONC(=N)N)c1)C1CCCC1 | – |
| 38 nM | COC(=O)CCN(CC1CC1)C(=O)c1cc(Cl)cc(OCCCONC(=N)N)c1 | – |
| 47 nM | N=C(N)NOCCCOc1cc(Cl)cc(C(=O)N(CCc2cccnc2)CC2CC2)c1 | – |
| 7 nM | Cc1cc(OCCCON=C(N)N)cc(C(=O)N(CCC(C)C)Cc2ccoc2)c1 | – |
| 8 nM | Cc1cc(OCCCONC(=N)N)cc(C(=O)N(CCCCCC(N)=O)C2CCCCC2)c1 | – |
| 204 nM | N=C(N)NOCCCOc1cc(Cl)cc(C(=O)N(CCN2CCCC2)CC2CC2)c1 | – |
| 59 nM | N=C(N)NOCCCOc1cc(Cl)cc(C(=O)N(CCc2ccccn2)CC2CC2)c1 | – |
| 195 nM | CCCN(Cc1nccs1)C(=O)c1cc(C)cc(OCCCONC(=N)N)c1 | – |
| 31 nM | Cc1cc(OCCCONC(=N)N)cc(C(=O)N(Cc2ccsc2)CC2CC2)c1 | – |
| 52 nM | N=C(N)NOCCCOc1cc(Cl)cc(C(=O)N(CCc2ccncc2)CC2CC2)c1 | – |
| 17 nM | CCCN(CC1CCC1)C(=O)c1cc(C)cc(OCCCON=C(N)N)c1 | – |
| 880 nM | N=C(N)NOCCCOc1cc(Cl)cc(C(=O)N2CCCCC2)c1 | – |
| 86 nM | Cc1cc(OCCCONC(=N)N)cc(C(=O)N(Cc2ccccn2)CC2CC2)c1 | – |
| 38 nM | CCCN(CC1CCCC1)C(=O)c1cc(Cl)cc(OCCCONC(=N)N)c1 | – |
| 65 nM | CCOC(=O)CCN(CC1CC1)C(=O)c1cc(C)cc(OCCCONC(=N)N)c1 | – |
| 94 nM | CCCN(Cc1ccccn1)C(=O)c1cc(C)cc(OCCCON=C(N)N)c1 | – |
| 52 nM | CCCN(Cc1cccnc1)C(=O)c1cc(C)cc(OCCCONC(=N)N)c1 | – |
| 28 nM | COCCN(Cc1ccoc1)C(=O)c1cc(C)cc(OCCCON=C(N)N)c1 | – |
| 73 nM | CCCN(Cc1ccncc1)C(=O)c1cc(C)cc(OCCCONC(=N)N)c1 | – |
| 156 nM | COCCN(CC1CC1)C(=O)c1cc(Cl)cc(OCCCONC(=N)N)c1 | – |
| 110 nM | Cc1cc(OCCCONC(=N)N)cc(C(=O)N(CCC(N)=O)Cc2ccoc2)c1 | – |
| 8 nM | CCCCN(Cc1ccoc1)C(=O)c1cc(C)cc(OCCCONC(=N)N)c1 | – |
| 33 nM | CN(C(=O)c1cc(Cl)cc(OCCCON=C(N)N)c1)C1CCCCC1 | – |
